Test results: patent US9346812B2, “Substituted pyrrolopyrimidine compounds, compositions thereof, and methods of treatment therewith” (Signal Pharmaceutical LLC, priority 2013, dated 2016)

Tested on: CAL51 cell proliferation
Test: Cell Titer Glo Proliferation Assay (CAL51)
Type: cell-based, human
Conditions: Homo sapiens, CAL-51; CAL51 cell proliferation, 72 h, Cell Titer Glo luminescence; read-out: Act. Level
Procedure, shortened: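 CAL51 triple-negative breast cancer cells in DMEM or RPMI with 10% FBS were treated after overnight culture with serially diluted compound at 0.2% final DMSO. After 72 h, viability was read as CellTiter-Glo luminescence.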

| SMILES | IC50 [nM] |
| --- | --- |
| Cc1cc(C(=O)N(C)C)ccc1Nc1nc(OC2CCOCC2)c2c(-c3ccnc(C#N)c3)c[nH]c2n1 [Example 140, 4-(5-(2-cyanopyridin-4-yl)-4-(tetra-hydro-2H-pyran-4-yloxy)-7H-pyrrolo[2,3-d]pyrimidin-2-ylamino)-N,N,3-trimethylbenzamide] | 100 to 400 |
| CNC(=O)c1ccc(Nc2nc(OC)c3c(-c4ccc(-c5ncc[nH]5)cc4)c[nH]c3n2)c(OC)c1 [Example 141, 4-(5-(4-(1H-imidazol-2-yl)phenyl)-4-methoxy-7H-pyrrolo[2,3-d]pyrimidin-2-ylamino)-3-methoxy-N-methylbenzamide] | 100 to 400 |
| CNC(=O)c1ccc(Nc2nc(OC3CCOCC3)c3c(-c4ccnc(N)c4)c[nH]c3n2)c(OC)c1 [Example 142, 4-(5-(2-aminopyridin-4-yl)-4-(tetra-hydro-2H-pyran-4-yloxy)-7H-pyrrolo[2,3-d]pyrimidin-2-ylamino)-3-methoxy-N-methylbenzamide] | < 100 |
| CNC(=O)c1ccc(Nc2nc(OC3CCOCC3)c3c(-c4ccnc(OC)c4)c[nH]c3n2)c(OC)c1 [Example 143, 3-methoxy-4-(5-(2-methoxypyridin-4-yl)-4-(tetrahydro-2H-pyran-4-yloxy)-7H-pyrrolo[2,3-d]pyrimidin-2-ylamino)-N-methylbenzamide] | < 100 |
| CNC(=O)c1cccc(-c2c[nH]c3nc(Nc4ccc(C(=O)NC)cc4C)nc(OC4CCOCC4)c23)c1 [Example 144, N,3-dimethyl-4-(5-(3-(methyl-carbamoyl)phenyl)-4-(tetrahydro-2H-pyran-4-yloxy)-7H-pyrrolo[2,3-d]pyrimidin-2-ylamino)benzamide] | 1000 to 10000 |
| CNC(=O)c1ccc(Nc2nc(OC3CCOCC3)c3c(-c4ccnc(O)c4)c[nH]c3n2)c(OC)c1 [Example 147, 4-(5-(2-hydroxypyridin-4-yl)-4-(tetrahydro-2H-pyran-4-yloxy)-7H-pyrrolo[2,3-d]pyrimidin-2-ylamino)-3-methoxy-N-methylbenzamide] | 100 to 400 |
| CNC(=O)c1ccc(Nc2nc(OC3CCOCC3)c3c(-c4ccc5nc(C)n(C)c5c4)c[nH]c3n2)c(OC)c1 [Example 148, 4-(5-(1,2-dimethyl-1H-benzo[d]imidazol-6-yl)-4-(tetrahydro-2H-pyran-4-yloxy)-7H-pyrrolo[2,3-d]pyrimidin-2-ylamino)-3-methoxy-N-methylbenzamide] | < 100 |
| CNC(=O)c1cccc(-c2c[nH]c3nc(Nc4ccc(C(=O)NC)cc4C)nc(OC)c23)c1 [Example 149, 4-(4-methoxy-5-(3-(methylcarbamoyl)phenyl)-7H-pyrrolo[2,3-d]pyrimidin-2-ylamino)-N,3-dimethylbenzamide] | 1000 to 10000 |
| CNC(=O)c1ccc(Nc2nc(O[C@H]3CC[C@](C)(O)CC3)c3c(-c4ccc5nc(C)oc5c4)c[nH]c3n2)c(C)c1 [Example 150, 4-(4-((1r,4r)-4-hydroxy-4-methylcyclohexyloxy)-5-(2-methylbenzo[d]oxazol-6-yl)-7H-pyrrolo[2,3-d]pyrimidin-2-ylamino)-N,3-dimethylbenzamide] | < 100 |
| CNC(=O)c1ccc(Nc2nc(O[C@H]3CC[C@@](C)(O)CC3)c3c(-c4ccc5nc(C)oc5c4)c[nH]c3n2)c(C)c1 [Example 151, 4-(4-((1s,4s)-4-hydroxy-4-methylcyclohexyloxy)-5-(2-methylbenzo[d]oxazol-6-yl)-7H-pyrrolo[2,3-d]pyrimidin-2-ylamino)-N,3-dimethylbenzamide] | < 100 |
| CNC(=O)c1ccc(-c2c[nH]c3nc(Nc4ccc(C(=O)NC)cc4C)nc(O[C@H]4CCOC4)c23)cc1 [Example 153, (S)-N,3-dimethyl-4-(5-(4-(methylcarbamoyl)phenyl)-4-(tetrahydrofuran-3-yloxy)-7H-pyrrolo[2,3-d]pyrimidin-2-ylamino)benzamide] | < 100 |
| CNC(=O)c1ccc(Nc2nc(OC3CCOCC3)c3c(-c4cncnc4)c[nH]c3n2)c(OC)c1 [Example 154, 3-methoxy-N-methyl-4-(5-(pyrimidin-5-yl)-4-(tetrahydro-2H-pyran-4-yloxy)-7H-pyrrolo[2,3-d]pyrimidin-2-ylamino) benzamide] | 100 to 400 |
| CNC(=O)c1ccc(Nc2nc(OC3CCOCC3)c3c(-c4ccnc(NC)c4)c[nH]c3n2)c(OC)c1 [Example 155, 3-methoxy-N-methyl-4-(5-(2-(methylamino)pyridin-4-yl)-4-(tetrahydro-2H-pyran-4-yloxy)-7H-pyrrolo[2,3-d]pyrimidin-2-ylamino)benzamide] | < 100 |
| CNC(=O)c1ccc(Nc2nc(OC)c3c(-c4ccncc4)c[nH]c3n2)c(C)c1 [Example 156, 4-(4-methoxy-5-(pyridin-4-yl)-7H-pyrrolo[2,3-d]pyrimidin-2-ylamino)-N,3-dimethylbenzamide] | 100 to 400 |
| COc1nc(Nc2ccc(C(=O)N(C)C)cc2Cl)nc2[nH]cc(-c3ccncc3)c12 [Example 157, 3-chloro-4-(4-methoxy-5-(pyridin-4-yl)-7H-pyrrolo[2,3-d]pyrimidin-2-ylamino)-N,N-dimethylbenzamide] | 100 to 400 |
| CNC(=O)c1ccc(Nc2nc(OC3CCOCC3)c3c(-c4ccc(S(C)(=O)=O)cc4)c[nH]c3n2)c(C)c1 [Example 158, N,3-dimethyl-4-(5-(4-(methylsulfonyl)phenyl)-4-(tetrahydro-2H-pyran-4-yloxy)-7H-pyrrolo[2,3-d]pyrimidin-2-ylamino)benzamide] | 400 to 1000 |
| CNC(=O)c1ccc(-c2c[nH]c3nc(Nc4ccc(C(=O)N(C)C)cc4C)nc(OC4CCOCC4)c23)cn1 [Example 159, 5-(2-(4-(dimethylcarbamoyl)-2-methylphenylamino)-4-(tetrahydro-2H-pyran-4-yloxy)-7H-pyrrolo[2,3-d]pyrimidin-5-yl)-N-methylpicolinamide] | < 100 |
| COc1cc(C(=O)NCCO)ccc1Nc1nc(OC(C)C)c2c(-c3ccc4nc(C)oc4c3)c[nH]c2n1 [Example 160, N-(2-hydroxyethyl)-4-(4-isopropoxy-5-(2-methylbenzo[d]oxazol-6-yl)-7H-pyrrolo[2,3-d]pyrimidin-2-ylamino)-3-methoxybenzamide] | < 100 |
| CCOc1ccc(-c2c[nH]c3nc(Nc4ccc(C(=O)NC)cc4OC)nc(O[C@H]4CCOC4)c23)cn1 [Example 161, (S)-4-(5-(6-ethoxypyridin-3-yl)-4-(tetrahydrofuran-3-yloxy)-7H-pyrrolo[2,3-d]pyrimidin-2-ylamino)-3-methoxy-N-methylbenzamide] | 100 to 400 |
| CCOc1ccc(-c2c[nH]c3nc(Nc4ccc(C(=O)NC)cc4C)nc(O[C@H]4CCOC4)c23)cn1 [Example 162, (S)-4-(5-(6-ethoxypyridin-3-yl)-4-(tetrahydrofuran-3-yloxy)-7H-pyrrolo[2,3-d]pyrimidin-2-ylamino)-N,3-dimethylbenzamide] | 100 to 400 |
| CNC(=O)c1ccc(Nc2nc(OC3CCOCC3)c3c(-c4ccn(C)n4)c[nH]c3n2)c(OC)c1 [Example 163, 3-methoxy-N-methyl-4-(5-(1-methyl-1H-pyrazol-3-yl)-4-(tetrahydro-2H-pyran-4-yloxy)-7H-pyrrolo[2,3-d]pyrimidin-2-ylamino)benzamide] | < 100 |
| Cc1cc(C(=O)N(C)C)ccc1Nc1nc(O[C@H]2CCOC2)c2c(-c3cnn(C)c3)c[nH]c2n1 [Example 164, (S)-N,N,3-trimethyl-4-(5-(1-methyl-1H-pyrazol-4-yl)-4-(tetrahydrofuran-3-yloxy)-7H-pyrrolo[2,3-d]pyrimidin-2-ylamino)benzamide] | < 100 |
| CNC(=O)c1ccc(Nc2nc(O[C@H]3CCOC3)c3c(-c4cnn(C)c4)c[nH]c3n2)c(C)c1 [Example 165, (S)-N,3-dimethyl-4-(5-(1-methyl-1H-pyrazol-4-yl)-4-(tetrahydrofuran-3-yloxy)-7H-pyrrolo[2,3-d]pyrimidin-2-ylamino)benzamide] | < 100 |
| CNC(=O)c1ccc(Nc2nc(OC)c3c(-c4ccnc(C)c4)c[nH]c3n2)c(OC)c1 [Example 166, 3-methoxy-4-(4-methoxy-5-(2-methylpyridin-4-yl)-7H-pyrrolo [2,3-d]pyrimidin-2-ylamino)-N-methylbenzamide] | < 100 |
| CNC(=O)c1ccc(Nc2nc(OC3CCOCC3)c3c(-c4ccnc(C)c4)c[nH]c3n2)c(OC)c1 [Example 167, 3-methoxy-N-methyl-4-(5-(2-methylpyridin-4-yl)-4-(tetrahydro-2H-pyran-4-yloxy)-7H-pyrrolo[2,3-d]pyrimidin-2-ylamino)benzamide] | < 100 |
| CNC(=O)c1ccc(Nc2nc(OCCO)c3c(-c4ccc5nc(C)oc5c4)c[nH]c3n2)c(OC)c1 [Example 168, 4-(4-(2-hydroxyethoxy)-5-(2-methylbenzo[d]oxazol-6-yl)-7H-pyrrolo[2,3-d]pyrimidin-2-ylamino)-3-methoxy-N-methylbenzamide] | < 100 |
| CNC(=O)c1ccc(Nc2nc(O[C@H]3CCOC3)c3c(-c4ccc5nc(C)oc5c4)c[nH]c3n2)c(OC)c1 [Example 169, (S)-3-methoxy-N-methyl-4-(5-(2-methylbenzo[d]oxazol-6-yl)-4-(tetrahydrofuran-3-yloxy)-7H-pyrrolo[2,3-d]pyrimidin-2-ylamino)benzamide] | < 100 |
| CNC(=O)c1ccc(Nc2nc(OC3CCOCC3)c3c(-c4ccc5nc(C(C)C)oc5c4)c[nH]c3n2)c(OC)c1 [Example 170, 4-(5-(2-isopropylbenzo[d]oxazol-6-yl)-4-(tetrahydro-2H-pyran-4-yloxy)-7H-pyrrolo[2,3-d]pyrimidin-2-ylamino)-3-methoxy-N-methylbenzamide] | 100 to 400 |
| CNC(=O)c1ccc(Nc2nc(OC3CCOCC3)c3c(-c4nccn4C)c[nH]c3n2)c(OC)c1 [Example 172, 3-methoxy-N-methyl-4-(5-(1-methyl-1H-imidazol-2-yl)-4-(tetrahydro-2H-pyran-4-yloxy)-7H-pyrrolo[2,3-d]pyrimidin-2-ylamino)benzamide] | 1000 to 10000 |
| CNC(=O)c1ccc(Nc2nc(OC3CCOCC3)c3c(-c4ncco4)c[nH]c3n2)c(OC)c1 [Example 173, 3-methoxy-N-methyl-4-(5-(oxazol-2-yl)-4-(tetrahydro-2H-pyran-4-yloxy)-7H-pyrrolo[2,3-d]pyrimidin-2-ylamino)benzamide] | 400 to 1000 |
